Structures are written as SMILES.

In one experiment the target is mTOR (Homo sapiens (Human), UniProt P42345).
For experiment [1], the system named is PI3-K (phosphorylation of AKT at serine 473) in BT20 cells. The experiment can be described thus: PI3-Kα cellular assay (phospho-AKT Ser473 ELISA in BT20 cells).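 Further: lysates read by ELISA with TMB colour at 450 nm, cells given 0.5% DMSO vehicle serve as positive control and cell-free wells as negative control, duplicate wells per concentration.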 To be noted: Homo sapiens, BT-20, 1 h, read-out: S473 pAKT 10% FBS IC50 (μM). For orientation: An ELISA detects its analyte on a solid surface through an enzyme-linked reagent.
Another experiment has as its target PI3-Kα (Mus musculus (Mouse), UniProt P42337). The experiment in a line: PI3-Kα biochemical assay (in vitro kinase assay, fluorescence polarization).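 Further: Insect-cell-expressed mouse p110/p85 complex converting PI(4,5)P2, product PI(3,4,5)P3 detected by displacing TAMRA-tagged PI(3,4,5)P3 from Grip1 PH domain, lower polarization means more product, room temperature.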 The following applies: Ki calculated from IC50, [ATP]=30 uM, Km=25 uM.

Sequence of PI3-Kα (P42337 whole entry, the tested form may be a part): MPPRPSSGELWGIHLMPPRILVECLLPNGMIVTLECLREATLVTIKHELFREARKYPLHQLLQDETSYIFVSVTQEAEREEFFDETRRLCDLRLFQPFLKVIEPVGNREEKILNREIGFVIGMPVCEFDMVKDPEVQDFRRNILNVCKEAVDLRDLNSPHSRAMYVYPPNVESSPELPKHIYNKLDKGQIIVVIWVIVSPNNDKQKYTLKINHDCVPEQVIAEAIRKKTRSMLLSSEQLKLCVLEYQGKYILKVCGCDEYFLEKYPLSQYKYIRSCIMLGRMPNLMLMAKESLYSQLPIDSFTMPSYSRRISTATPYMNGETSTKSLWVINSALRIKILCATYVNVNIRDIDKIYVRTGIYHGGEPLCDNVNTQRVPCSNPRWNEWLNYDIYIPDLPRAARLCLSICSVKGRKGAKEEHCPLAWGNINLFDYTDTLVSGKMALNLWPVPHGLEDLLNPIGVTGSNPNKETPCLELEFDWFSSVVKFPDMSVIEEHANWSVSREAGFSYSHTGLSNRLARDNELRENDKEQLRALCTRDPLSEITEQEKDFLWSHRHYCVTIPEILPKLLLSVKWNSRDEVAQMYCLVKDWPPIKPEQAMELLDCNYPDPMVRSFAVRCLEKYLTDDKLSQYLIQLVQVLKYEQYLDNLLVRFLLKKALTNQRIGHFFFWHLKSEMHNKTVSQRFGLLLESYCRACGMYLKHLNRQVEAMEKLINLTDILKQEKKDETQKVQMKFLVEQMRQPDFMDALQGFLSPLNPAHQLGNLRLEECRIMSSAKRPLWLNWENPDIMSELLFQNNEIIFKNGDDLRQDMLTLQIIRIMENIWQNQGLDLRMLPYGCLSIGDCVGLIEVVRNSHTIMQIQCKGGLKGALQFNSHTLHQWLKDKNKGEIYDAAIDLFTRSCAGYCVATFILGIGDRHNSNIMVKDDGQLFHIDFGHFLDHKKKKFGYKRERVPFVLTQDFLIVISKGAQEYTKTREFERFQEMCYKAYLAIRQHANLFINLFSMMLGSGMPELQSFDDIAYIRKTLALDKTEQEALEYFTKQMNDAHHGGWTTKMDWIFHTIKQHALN
Sequence of PI3-Kα (P26450 whole entry partner, the tested form may be a part): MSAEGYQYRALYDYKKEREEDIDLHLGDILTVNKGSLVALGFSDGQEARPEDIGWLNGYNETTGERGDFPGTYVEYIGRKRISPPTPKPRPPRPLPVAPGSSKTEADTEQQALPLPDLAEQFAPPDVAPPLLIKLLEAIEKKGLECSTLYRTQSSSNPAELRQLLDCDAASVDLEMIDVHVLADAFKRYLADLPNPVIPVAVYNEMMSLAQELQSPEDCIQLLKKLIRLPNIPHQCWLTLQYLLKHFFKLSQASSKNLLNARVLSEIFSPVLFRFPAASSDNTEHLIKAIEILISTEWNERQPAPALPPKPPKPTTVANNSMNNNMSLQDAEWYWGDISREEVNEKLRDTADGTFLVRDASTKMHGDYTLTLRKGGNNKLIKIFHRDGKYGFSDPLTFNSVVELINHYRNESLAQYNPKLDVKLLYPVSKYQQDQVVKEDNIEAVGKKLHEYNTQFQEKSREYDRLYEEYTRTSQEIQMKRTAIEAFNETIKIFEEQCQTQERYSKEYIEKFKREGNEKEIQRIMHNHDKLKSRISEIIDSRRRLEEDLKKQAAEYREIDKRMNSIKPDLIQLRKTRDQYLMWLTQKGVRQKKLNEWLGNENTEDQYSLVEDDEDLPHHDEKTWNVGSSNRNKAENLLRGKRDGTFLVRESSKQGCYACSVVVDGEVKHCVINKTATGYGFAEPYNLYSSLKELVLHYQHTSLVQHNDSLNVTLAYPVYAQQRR
Sequence of mTOR (P42345 2156-2469): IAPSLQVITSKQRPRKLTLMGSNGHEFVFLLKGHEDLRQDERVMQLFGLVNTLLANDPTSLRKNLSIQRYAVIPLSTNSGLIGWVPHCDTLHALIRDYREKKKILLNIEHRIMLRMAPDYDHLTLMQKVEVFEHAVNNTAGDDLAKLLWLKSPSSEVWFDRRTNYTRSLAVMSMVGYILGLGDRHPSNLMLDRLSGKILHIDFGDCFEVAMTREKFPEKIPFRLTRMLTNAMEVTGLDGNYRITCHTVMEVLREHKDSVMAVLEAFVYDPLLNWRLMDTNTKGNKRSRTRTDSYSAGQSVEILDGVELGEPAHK

`COc1ncc(-c2ccc3ncc4c(c3n2)n(C2CCN(CC(=O)N(C)C)CC2)c(=O)n4C)cn1` [Compound 163, 2-{4-[8-(2-methoxypyrimidin-5-yl)-3-methyl-2-oxo-2,3-dihydro-1H-imidazo[4,5-c][1,5]naphthyridin-1-yl]piperidin-1-yl}-N,N-dimethylacetamide]: the Ki on mTOR came to 18.4 nM. Besides, the half-maximal inhibitory concentration (IC50) in experiment [1] came out at 0.037 µM. Besides, the “PI3Ka Ki” value on PI3-Kα is 4.7 nM.
As for `Cc1ccc(-c2ccc3ncc4c(c3n2)n(C2CCN(c3ncccn3)CC2)c(=O)n4C)cn1` [Compound 165, 3-methyl-8-(6-methylpyridin-3-yl)-1-(1-pyrimidin-2-ylpiperidin-4-yl)-1,3-dihydro-2H-imidazo[4,5-c][1,5]naphthyridin-2-one], the affinity on mTOR corresponds to a Ki of 73.2 nM. In experiment [1], the IC50 was 0.0414 µM. Moreover, on PI3-Kα, the “PI3Ka Ki” value was 3.52 nM.
On to `Cc1ccc(-c2ccc3ncc4c(c3n2)n(C2CCN(CCO)CC2)c(=O)n4C)cn1` [Compound 166, 1-[1-(2-hydroxyethyl)piperidin-4-yl]-3-methyl-8-(6-methylpyridin-3-yl)-1,3-dihydro-2H-imidazo[4,5-c][1,5]naphthyridin-2-one], for which the Ki at mTOR is 17.6 nM. Further, the IC50 in experiment [1] stood at 0.0356 µM. Besides, the “PI3Ka Ki” value at PI3-Kα was 1.77 nM.
Taken in the same sequence, the figures for `Cn1c(=O)n([C@H]2CC[C@H](O)CC2)c2c3nc(-c4cn[nH]c4)ccc3ncc21` [Compound 168, 1-(trans-4-hydroxycyclohexyl)-3-methyl-8-(1H-pyrazol-4-yl)-1,3-dihydro-2H-imidazo[4,5-c][1,5]naphthyridin-2-one] were 0.204 nM, 0.0197 µM and 4.17 nM.
Taken in the same sequence, the figures for `Cn1cc(-c2ccc3ncc4c(c3n2)n([C@H]2CC[C@H](O)CC2)c(=O)n4C)cn1` [Compound 170, 1-(trans-4-hydroxycyclohexyl)-3-methyl-8-(1-methyl-1H-pyrazo1-4-yl)-1,3-dihydro-2H-imidazo[4,5-c][1,5]naphthyridin-2-one] were 7.18 nM, 0.107 µM and 7.44 nM.
On to `Cc1ccc(-c2ccc3ncc4c(c3n2)n(C2CCN(C)CC2)c(=O)n4C)cn1` [Compound 171, 3-methyl-1-(1-methylpiperidin-4-yl)-8-(6-methylpyridin-3-yl)-1,3-dihydro-2H-imidazo[4,5-c][1,5]naphthyridin-2-one], for which the Ki on mTOR came to 40.1 nM. The IC50 in experiment [1] stood at 0.0228 µM. Besides, the “PI3Ka Ki” value at PI3-Kα was 4.26 nM.
`Cc1ccc(-c2ccc3ncc4c(c3n2)n(C2CCN(CC(N)=O)CC2)c(=O)n4C)cn1` [Compound 176, 2-{4-[3-methyl-8-(6-methylpyridin-3-yl)-2-oxo-2,3-dihydro-1H-imidazo[4,5-c][1,5]naphthyridin-1-yl]piperidin-1-yl}acetamide]: at mTOR, the inhibition constant (Ki) stood at 1.41 nM. Besides, the IC50 in experiment [1] stood at 0.0187 µM. The “PI3Ka Ki” value on PI3-Kα was 0.882 nM.
As to `Cc1ccc(-c2ccc3ncc4c(c3n2)n(C2CCN(C(=O)CN(C)C)CC2)c(=O)n4C)cn1` [Compound 178, 1-[1-(N,N-dimethylglycyl)piperidin-4-yl]-3-methyl-8-(6-methylpyridin-3-yl)-1,3-dihydro-2H-imidazo[4,5-c][1,5]naphthyridin-2-one], affinity on mTOR was put at a Ki of 1.18 nM. Further, in experiment [1], the IC50 was 0.0427 µM. At PI3-Kα, the “PI3Ka Ki” value is 4.09 nM.
For `Cc1ccc(-c2ccc3ncc4c(c3n2)n([C@H]2CC[C@H](O)CC2)c(=O)n4C)cn1` [Compound 179, 1-(trans-4-hydroxycyclohexyl)-3-methyl-8-(6-methylpyridin-3-yl)-1,3-dihydro-2H-imidazo[4,5-c][1,5]naphthyridin-2-one] the same measures were 3.29 nM, 0.0185 µM and 1.03 nM.

The term Ki denotes a dissociation constant, usually derived from enzyme kinetics or from competition with a known ligand. The low end stands for a stronger hold on the target, the high end for a looser hold on the target. Broadly, the IC50 is the concentration needed to halve the response being measured.

Source of the values: patent US8791131B2, “Imidazo[1,5]naphthyridine compounds, their pharmaceutical use and compositions” (Pfizer Inc., priority 2008, dated 2014).
